{
  "source": "paper PMC9232612",
  "about": "“A phase 1b randomised controlled trial of a glucagon-like peptide-1 and glucagon receptor dual agonist IBI362 (LY3305677) in Chinese patients with type 2 diabetes” (Nature Communications, 2022)",
  "assay_type_in_all_cases": "in vivo, human",
  "key": {"[1]": {"system": "Chinese patients with T2D", "assay": "Alanine aminotransferase and aspartate aminotransferase levels", "settings": "1.5 mg once weekly", "from_the_text": "Primary outcomes of the study were the safety and tolerability of IBI362. Safety assessment included adverse events, physical examinations, laboratory tests (including lipase, amylase and calcitonin level measures), vital signs and 12-lead electrocardiogram. Adverse events were categorized according to the Medical Dictionary for Regulatory Activities system organ classes (SOCs) and preferred terms. Treatment-emergent adverse events (TEAEs) were monitored from the time of informed consent to the safety follow-up period. The severity of TEAEs (mild, moderate or severe) and the association between an event and the study drug were assessed by investigators based on pre-specified criteria.\nCFB in ALT (U/L), mean (SD)\nCFB in AST (U/L), mean (SD)\nFig. S2: Change from baseline in ALT and AST levels over time.\na. CFB in ALT levels over time. b. CFB in AST levels over time. Data are plotted as means +/- SD.\nALT = alanine aminotransferase; AST = aspartate aminotransferase; CFB = change from baseline;\nSD = standard deviation. Source data are provided as a Source Data file. […]"}, "[2]": {"system": "Chinese patients with T2D", "assay": "Mixed-meal tolerance test (MTT): plasma glucose and glucose AUC0-4 h", "settings": "1.5 mg once weekly, n=6", "experimental": "(§1) HbA1c (2200101, Bio-Rad, USA), blood glucose (05168791190, Roche Diagnostics, Germany), insulin (12017547122, Roche Diagnostics, Germany), C peptide (03184897190, Roche Diagnostics, Germany), total GLP-1 (GLP-1 [7–36] amide and its metabolite, GLP-1 [9–36] amide, 10-1278-01, Mercodia AB, Sweden) and OXM (AL-139, AnshLabs, USA) tests were performed according to the manufactures’ instruction manuals in a central laboratory (KingMed Diagnostics, Guangzhou, China). HbA1c was measured using a Bio-rad D-100 Haemoglobin Testing System (Bio-rad). Blood glucose was measured using a Roche Cobas c702 analyser (Roche Diagnostics). Insulin and C peptide were measured using a Roche […] analyser (Roche Diagnostics). GLP-1 and OXM were measured using a Tecan Infinite M Plex microplate reader (TECAN).\n(§2) Standard non-compartmental pharmacokinetics methods were used to analyze IBI362 plasma concentration data using Pkanalix 2020R1 (Lixoft, Antony, France). Secondary efficacy outcomes included change from baseline to week 12 in HbA1c, fasting plasma glucose (FPG), fasting insulin levels, change from baseline to week 12 in post-mixed-meal tolerance test (post-MTT) glucose, insulin, C peptide, GLP-1 and OXM levels, as well as seven-point self-measured blood glucose (SMBG) profile.\nThe analyses for change from baseline in HbA1c, FPG, post-MTT glucose AUC0–4 h and body weight were performed using the mixed-effect model for repeated measures (MMRM) with least-squares means and standard error provided. The MMRM included the corresponding baseline value, treatment, visit and treatment-by-visit as fixed effects and patient as a random effect. Mean change or mean percent change from baseline were analysed using a restricted maximum likelihood (REML)‐based repeated measures approach in combination with the Newton Raphson Algorithm. The fix effect of visit was fitted as a repeated effect and an unstructured covariance matrix was used. In case of non-converge, matrix like Variance Components and Compound Symmetry will be tested in a subsequent order until model‐convergence is achieved. The Kenward-Roger degree of freedom was used in estimating fixed effects. No missing data imputation was conducted. For HbA1c, FPG and body weight, point estimate of treatment difference versus placebo and 90% CI were provided for each IBI362 dose group and the dulaglutide group, with nominal p values. […]\n(§3) 3. Standard meal test (MTT) collection measures included: insulin, C-peptide, plasma glucose, glucagon, endogenous OXM, and endogenous GLP-1. The sampling points include: fasting, 30 min, 1h, 2h, 3h and 4h.\n(§4) A total of 9 mL blood will be collected from each blood collection point. See the manual of the central laboratory for the detailed operation process. Fasting state refers to fasting for 10 hours. [ The standard meal is\n(§5) instant noodles. The master Kang roast beef noodles (bucket noodles) purchased by the sponsor in a unified manner are removed from the oil bag. The noodles are soaked in boiled water and then removed. The seasoning\n(§6) bag is added and mixed well. The time is counted from the first bite of eating. The noodles are eaten within 10 minutes, and 200 mL of water is drunk; or the instant noodles are directly opened with 200 mL of boiled\nwater to ensure that the noodles are eaten and the water or soup is drunk]. Visit days when MTT test is performed: 1 day prior to Cycle 1 administration, Day 80 (D80). […]\n(§7) ● Test by central laboratory"}, "[3]": {"system": "Chinese patients with T2D", "assay": "Mixed-meal tolerance test (MTT): C peptide", "settings": "1.5 mg once weekly, n=6", "experimental": "as §1, §2\nIBI362 Innovent Biologics (Suzhou) Co., Ltd. CIBI362A101\nas §3, §4, §5, §6\nwater to ensure that the noodles are eaten and the water or soup is drunk]. Visit days when MTT test is performed: 1 day prior to Cycle 1 administration, Day 80 (D80).\n4. If the patient experiences drug-related adverse events during dose escalation and meets the protocol-specified tolerance criteria, dose adjustment is required at the investigator's discretion, and a standard meal test\nshould be performed 48 hours after the first dose after dose adjustment.\nas §7"}, "Waist circumference": {"assay": "Waist circumference", "settings": "1.5 mg once weekly, n=6", "from_the_text": "(§8) Exploratory outcomes included change from baseline in body weight, waist circumference, body-mass index (BMI) and change in homeostatic model assessment of β-cell function (HOMA-β) and insulin resistance (HOMA-IR)."}, "Body-mass index (BMI)": {"assay": "Body-mass index (BMI)", "settings": "Dulaglutide group; mean", "from_the_text": "as §8"}},
  "note": "“And” between values parts separate entries of the source, which are not always exact repeats. Identical values can stand only once.",
  "data": [
    {"substance": "Dulaglutide: open-label active reference, subcutaneously once weekly at a fixed dose of 1.5 mg [reference compound]", "values": [
      {"measurement": "Change from baseline in ALT, mean", "setting": "[1]; week 4", "value": -3.70, "unit": "U/L"},
      {"measurement": "Change from baseline in AST, mean", "setting": "[1]; week 4", "value": 0.83, "unit": "U/L"},
      {"measurement": "Change from baseline in ALT, mean", "setting": "[1]; week 8", "value": -4.33, "unit": "U/L"},
      {"measurement": "Change from baseline in AST, mean", "setting": "[1]; week 8", "value": 1.53, "unit": "U/L"},
      {"measurement": "Change from baseline in ALT, mean", "setting": "[1]; week 12", "value": -6.92, "unit": "U/L"},
      {"measurement": "Change from baseline in AST, mean", "setting": "[1]; week 12", "value": 1.58, "unit": "U/L"},
      {"measurement": "Percent change from baseline to week 12 in post-MTT glucose AUC0-4 h, LS mean", "setting": "[2]; MMRM", "value": -41.70, "unit": "%"},
      {"measurement": "Glucose during MTT, mean", "setting": "[2]; week 12, 0 min", "value": 7.18, "unit": "mmol/L"},
      {"measurement": "Glucose during MTT, mean", "setting": "[2]; week 12, 30 min", "value": 9.32, "unit": "mmol/L"},
      {"measurement": "Glucose during MTT, mean", "setting": "[2]; week 12, 60 min", "value": 11.86, "unit": "mmol/L"},
      {"measurement": "Glucose during MTT, mean", "setting": "[2]; week 12, 120 min", "value": 9.62, "unit": "mmol/L"},
      {"measurement": "Glucose during MTT, mean", "setting": "[2]; week 12, 180 min", "value": 7.11, "unit": "mmol/L"},
      {"measurement": "Glucose during MTT, mean", "setting": "[2]; week 12, 240 min", "value": 6.79, "unit": "mmol/L"},
      {"measurement": "C peptide during MTT, mean", "setting": "[3]; week 12, 0 min", "value": 3.04, "unit": "ng/mL"},
      {"measurement": "C peptide during MTT, mean", "setting": "[3]; week 12, 30 min", "value": 4.18, "unit": "ng/mL"},
      {"measurement": "C peptide during MTT, mean", "setting": "[3]; week 12, 60 min", "value": 6.16, "unit": "ng/mL"},
      {"measurement": "C peptide during MTT, mean", "setting": "[3]; week 12, 120 min", "value": 8.34, "unit": "ng/mL"},
      {"measurement": "C peptide during MTT, mean", "setting": "[3]; week 12, 180 min", "value": 5.85, "unit": "ng/mL"},
      {"measurement": "C peptide during MTT, mean", "setting": "[3]; week 12, 240 min", "value": 4.53, "unit": "ng/mL"},
      {"measurement": "Change from baseline to week 12 in waist circumference, mean", "setting": "Waist circumference", "value": -1.4, "unit": "cm"},
      {"measurement": "Change from baseline to week 12 in waist circumference, individual", "setting": "Waist circumference; single patients", "value": "-0.5 cm and -1.5 cm and -2.6 cm and -4.9 cm and 1.5 cm"},
      {"measurement": "Change from baseline to week 12 in BMI", "setting": "Body-mass index (BMI)", "value": -0.19, "unit": "kg/m2"}
    ]}
  ]
}
